From patent US20250002507A1, “7,8-DIHYDRO-5H-1,6-NAPHTHYRIDINE DERIVATIVES AS POSITIVE ALLOSTERIC MODULATORS OF THE MUSCARINIC ACETYLCHOLINE RECEPTOR M4 FOR TREATING NEUROLOGICAL AND PSYCHIATRIC DISORDERS” (Vanderbilt University, priority 2021, published 2025)

Molecular target: T1, Human M4 (Homo sapiens, UniProt P08173)
T1 construct: expressed in transfected cells
T1 sequence (P08173 1-479): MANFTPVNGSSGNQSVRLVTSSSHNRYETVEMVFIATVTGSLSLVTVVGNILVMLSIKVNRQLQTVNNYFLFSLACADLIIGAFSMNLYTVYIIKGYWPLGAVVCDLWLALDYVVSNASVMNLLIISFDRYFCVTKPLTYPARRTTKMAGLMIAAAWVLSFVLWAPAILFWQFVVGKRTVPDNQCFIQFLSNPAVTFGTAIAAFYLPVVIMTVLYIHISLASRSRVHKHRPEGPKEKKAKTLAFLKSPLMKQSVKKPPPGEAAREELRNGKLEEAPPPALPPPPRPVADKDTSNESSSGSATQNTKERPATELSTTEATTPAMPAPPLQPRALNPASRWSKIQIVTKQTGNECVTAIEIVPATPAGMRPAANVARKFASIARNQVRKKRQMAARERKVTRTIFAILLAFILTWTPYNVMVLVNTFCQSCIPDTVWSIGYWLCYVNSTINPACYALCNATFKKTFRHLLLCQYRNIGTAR
Test: mAChR M4 cell-based functional assay (calcium flux, potentiation of EC20 acetylcholine response), hM4-Gqi5 CHO-K1 cells
Conditions: for Emax at 30 µM: CHO-K1, % ACh maximum at 30 μM, human M4, read-out: Emax; for EC50: hM4-Gqi5 CHO-K1 cells, calcium flux, PAM of EC20 acetylcholine, read-out: Human M4 EC50
Summary of the method: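 CHO-K1 cells stably expressing human M4 with chimeric Gqi5, loaded with Fluo-4 AM 50 min at 37 °C; calcium flux read by FDSS. 11-point 1:3 compound curves added, then EC20 acetylcholine at 144 s; potentiation of the EC20 response fitted by four-parameter logistic to give EC50 and Emax.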

Row | Structure (SMILES) | Emax at 30 µM [%] | EC50 [nM]
1 | Cc1c(N2CCc3ncc(Nc4ccc(Cl)cc4F)cc3C2)nn2cnnc2c1C [Compound 68, N-(4-chloro-2-fluoro-phenyl)-6-(7,8-dimethyl-[1,2,4]triazolo[4,3-b]pyridazin-6-yl)-7,8-dihydro-5H-1,6-naphthyridin-3-amine] | 96 | 386
2 | Cc1ccc(F)c(Nc2cnc3c(c2)CN(c2nn4cnnc4c(C)c2C)CC3)c1 [Compound 69, 6-(7,8-dimethyl-[1,2,4]triazolo[4,3-b]pyridazin-6-yl)-N-(2-fluoro-5-methyl-phenyl)-7,8-dihydro-5H-1,6-naphthyridin-3-amine] | 90 | 296
3 | Cc1c(N2CCc3ncc(Nc4ccc(F)cc4F)cc3C2)nn2cnnc2c1C [Compound 70, N-(2,4-difluorophenyl)-6-(7,8-dimethyl-[1,2,4]triazolo[4,3-b]pyridazin-6-yl)-7,8-dihydro-5H-1,6-naphthyridin-3-amine] | 101 | 205
4 | [2H]c1nnc2c(C)c(C)c(N3CCc4ncc(Nc5ccccc5F)cc4C3)nn12 [Compound 71, 6-(3-deuterio-7,8-dimethyl-[1,2,4]triazolo[4,3-b]pyridazin-6-yl)-N-(2-fluorophenyl)-7,8-dihydro-5H-1,6-naphthyridin-3-amine] | 102 | 65.6
5 | [2H]c1nnc2c(C)c(C)c(N3CCc4ncc(Nc5cc(F)ccc5F)cc4C3)nn12 [Compound 72, 6-(3-deuterio-7,8-dimethyl-[1,2,4]triazolo[4,3-b]pyridazin-6-yl)-N-(2,5-difluorophenyl)-7,8-dihydro-5H-1,6-naphthyridin-3-amine] | 97 | 49.7
6 | [2H]c1nnc2c(C)c(C)c(N3CCc4ncc(Nc5cc(F)cc(F)c5F)cc4C3)nn12 [Compound 73, 6-(3-deuterio-7,8-dimethyl-[1,2,4]triazolo[4,3-b]pyridazin-6-yl)-N-(2,3,5-trifluorophenyl)-7,8-dihydro-5H-1,6-naphthyridin-3-amine] | 92 | 114
7 | [2H]c1nnc2c(C)c(C)c(N3CCc4ncc(-c5c(C)noc5C)cc4C3)nn12 [Compound 74, 4-[6-(3-deuterio-7,8-dimethyl-[1,2,4]triazolo[4,3-b]pyridazin-6-yl)-7,8-dihydro-5H-1,6-naphthyridin-3-yl]-3,5-dimethyl-isoxazole] | 103 | 108
8 | [2H]c1nnc2c(C)c(C)c(N3CCc4ncc(-c5c(C)nn(C)c5C)cc4C3)nn12 [Compound 75, 6-(3-deuterio-7,8-dimethyl-[1,2,4]triazolo[4,3-b]pyridazin-6-yl)-3-(1,3,5-trimethylpyrazol-4-yl)-7,8-dihydro-5H-1,6-naphthyridine] | 99 | 164
9 | [2H]c1nnc2c(C)c(C)c(N3CCc4ncc(-c5cn(C)nc5C)cc4C3)nn12 [Compound 76, 6-(3-deuterio-7,8-dimethyl-[1,2,4]triazolo[4,3-b]pyridazin-6-yl)-3-(1,3-dimethylpyrazol-4-yl)-7,8-dihydro-5H-1,6-naphthyridine] | 101 | 127
10 | [2H]c1nnc2c(C)c(C)c(N3CCc4ncc(-c5cnn(CC6CC6)c5)cc4C3)nn12 [Compound 77, 3-[1-(cyclopropylmethyl)pyrazol-4-yl]-6-(3-deuterio-7,8-dimethyl-[1,2,4]triazolo[4,3-b]pyridazin-6-yl)-7,8-dihydro-5H-1,6-naphthyridine] | 89 | 216
11 | [2H]c1nnc2c(C)c(C)c(N3CCc4ncc(-c5cncs5)cc4C3)nn12 [Compound 78, 5-[6-(3-deuterio-7,8-dimethyl-[1,2,4]triazolo[4,3-b]pyridazin-6-yl)-7,8-dihydro-5H-1,6-naphthyridin-3-yl]thiazole] | 92 | 63.9
12 | Cc1c(N2CCc3ncc(Nc4ncc(F)cc4F)cc3C2)nn2cnnc2c1C [Compound 79, N-(3,5-difluoro-2-pyridyl)-6-(7,8-dimethyl-[1,2,4]triazolo[4,3-b]pyridazin-6-yl)-7,8-dihydro-5H-1,6-naphthyridin-3-amine] | 62 | 180
13 | Cc1c(N2CCc3ncc(Nc4ncccc4F)cc3C2)nn2cnnc2c1C [Compound 80, 6-(7,8-dimethyl-[1,2,4]triazolo[4,3-b]pyridazin-6-yl)-N-(3-fluoro-2-pyridyl)-7,8-dihydro-5H-1,6-naphthyridin-3-amine] | 72 | 176
14 | Cc1ccc(Nc2cnc3c(c2)CN(c2nn4cnnc4c(C)c2C)CC3)c(F)n1 [Compound 81, 6-(7,8-dimethyl-[1,2,4]triazolo[4,3-b]pyridazin-6-yl)-N-(2-fluoro-6-methyl-3-pyridyl)-7,8-dihydro-5H-1,6-naphthyridin-3-amine] | 94 | 169
15 | Cc1c(N2CCc3ncc(Nc4cccnc4F)cc3C2)nn2cnnc2c1C [Compound 82, 6-(7,8-dimethyl-[1,2,4]triazolo[4,3-b]pyridazin-6-yl)-N-(2-fluoro-3-pyridyl)-7,8-dihydro-5H-1,6-naphthyridin-3-amine] | 99 | 119
16 | Cc1c(N2CCc3ncc(Nc4ccccc4F)cc3C2)nn2c(C)nnc2c1C [Compound 83, N-(2-fluorophenyl)-6-(3,7,8-trimethyl-[1,2,4]triazolo[4,3-b]pyridazin-6-yl)-7,8-dihydro-5H-1,6-naphthyridin-3-amine] | 99 | 361
17 | Cc1c(N2CCc3ncc(Nc4cc(F)ccc4F)cc3C2)nn2c(C)nnc2c1C [Compound 84, N-(2,5-difluorophenyl)-6-(3,7,8-trimethyl-[1,2,4]triazolo[4,3-b]pyridazin-6-yl)-7,8-dihydro-5H-1,6-naphthyridin-3-amine] | 99 | 210
18 | Cc1c(N2CCc3ncc(Nc4cc(F)cc(F)c4F)cc3C2)nn2c(C)nnc2c1C [Compound 85, N-(2,3,5-trifluorophenyl)-6-(3,7,8-trimethyl-[1,2,4]triazolo[4,3-b]pyridazin-6-yl)-7,8-dihydro-5H-1,6-naphthyridin-3-amine] | 92 | 352
19 | Cc1noc(C)c1-c1cnc2c(c1)CN(c1nn3c(C)nnc3c(C)c1C)CC2 [Compound 86, 3,5-dimethyl-4-[6-(3,7,8-trimethyl-[1,2,4]triazolo[4,3-b]pyridazin-6-yl)-7,8-dihydro-5H-1,6-naphthyridin-3-yl]isoxazole] | 84 | 227
20 | Cc1nn(C)c(C)c1-c1cnc2c(c1)CN(c1nn3c(C)nnc3c(C)c1C)CC2 [Compound 87, 3-(1,3,5-trimethylpyrazol-4-yl)-6-(3,7,8-trimethyl-[1,2,4]triazolo[4,3-b]pyridazin-6-yl)-7,8-dihydro-5H-1,6-naphthyridine] | 89 | 188
21 | Cc1nn(C)cc1-c1cnc2c(c1)CN(c1nn3c(C)nnc3c(C)c1C)CC2 [Compound 88, 3-(1,3-dimethylpyrazol-4-yl)-6-(3,7,8-trimethyl-[1,2,4]triazolo[4,3-b]pyridazin-6-yl)-7,8-dihydro-5H-1,6-naphthyridine] | 97 | 195
22 | Cc1c(N2CCc3ncc(-c4cnn(CC5CC5)c4)cc3C2)nn2c(C)nnc2c1C [Compound 89, 3-[1-(cyclopropylmethyl)pyrazol-4-yl]-6-(3,7,8-trimethyl-[1,2,4]triazolo[4,3-b]pyridazin-6-yl)-7,8-dihydro-5H-1,6-naphthyridine] | 91 | 291
